# Reference: patent US9434994B2, “Methods for prediction of clinical outcome to epidermal growth factor receptor inhibitors by non-small cell lung cancer patients” (The Regents of the University of Colorado, a body corporate, priority 2004, dated 2016)
# Read-outs that look alike come from different tables or passages of the source.
# Test system: NSCLC patients
# [1] = EGFR FISH+/EGFR mutation+ (17 patients)
# [2] = FISH +, IHC +, EGFR Mut +, n 12
# [3] = FISH +, IHC +, EGFR Mut −, n 20
# [4] = FISH −, IHC +, EGFR Mut +, n 12
# [5] = FISH −, IHC +, EGFR Mut −, n 39
# [6] = FISH −, IHC −, EGFR Mut −, n 37
# [7] = FISH+ or EGFR + (EGFR mutation), 46 pts
# [8] = FISH+/EGFR+ (EGFR mutation), 17 pts
# [9] = FISH−/EGFR− (EGFR mutation), 80 pts
# [10] = triple positive: EGFR FISH, EGFR IHC, P-AKT
# [11] = triple positive: EGFR FISH, IHC, mutation (12 patients)
# Source text: In order to make a more substantial statistical analysis and power, the inventors have analyzed the combined data set, which includes altogether 204 patients with NSCLC.
# The multivariable analysis is based on an initial univariable analysis including clinical- and biological markers by using backward stepwise regression methods. All univariately significant covariates were included in the stepwise selection.
compound,measurement,setting,value
COc1cc2ncnc(Nc3ccc(F)c(Cl)c3)c2cc1OCCCN1CCOCC1 [gefitinib],"HR, survival, multivariable",Current/Former smokers,2.68
same,DC (disease control),EGFR FISH+,65%
same,MS (95% CI),EGFR FISH+,18 (14-21) months
same,OR (overall response),EGFR FISH+,33%
same,"TTP, median (95% CI)",EGFR FISH+,9 (5-10) months
same,1-yr survival,EGFR FISH+ or IHC+,44% (33-55)
same,DCR,EGFR FISH+ or IHC+,43%
same,MS,EGFR FISH+ or IHC+,11 (7-15) mo
same,RSP,EGFR FISH+ or IHC+,10%
same,TTP,EGFR FISH+ or IHC+,3 (2-5) mo
same,Disease Control Rate,[1],69%
same,response rate,[1],69%
same,time to progression,[1],16 months
same,Median Survival,"EGFR FISH+/EGFR mutation+, not yet achieved",exceeding 20 months
same,DCR,EGFR FISH+/IHC+,76%
same,MS,EGFR FISH+/IHC+,21 (15-21) mo
same,RSP,EGFR FISH+/IHC+,41%
same,TTP,EGFR FISH+/IHC+,9 (6-16) mo
same,DC (disease control),EGFR FISH-,30%
same,MS (95% CI),EGFR FISH-,8 (6-11) months
same,OR (overall response),EGFR FISH-,6%
same,"TTP, median (95% CI)",EGFR FISH-,3 (2-3) months
same,Disease Control Rate,EGFR FISH-/EGFR mutation-,29%
same,response rate,EGFR FISH-/EGFR mutation-,3%
same,time to progression,EGFR FISH-/EGFR mutation-,3 month
same,DCR,EGFR FISH-/IHC-,17%
same,MS,EGFR FISH-/IHC-,6 (4-8) mo
same,RSP,EGFR FISH-/IHC-,2%
same,TTP,EGFR FISH-/IHC-,2 (2-3) mo
same,DC (disease control),EGFR IHC+,56%
same,MS (95% CI),EGFR IHC+,14 (11-21) months
same,OR (overall response),EGFR IHC+,22%
same,"TTP, median (95% CI)",EGFR IHC+,5 (3-7) months
same,DC (disease control),EGFR IHC-,27%
same,"HR, survival, multivariable",EGFR IHC-,1.70
same,MS (95% CI),EGFR IHC-,7 (5-10) months
same,OR (overall response),EGFR IHC-,5%
same,"TTP, median (95% CI)",EGFR IHC-,3 (2-3) months
same,DC (disease control),EGFR Mutation+,52%
same,MS (95% CI),EGFR Mutation+,13 (6-21)
same,OR (overall response),EGFR Mutation+,39%
same,"TTP, median (95% CI)",EGFR Mutation+,3 (2-11)
same,DC (disease control),EGFR Mutation-,37%
same,MS (95% CI),EGFR Mutation-,11 (7-13)
same,OR (overall response),EGFR Mutation-,7%
same,"TTP, median (95% CI)",EGFR Mutation-,3 (2-4)
same,1-yr survival,EGFR mutation+ or IHC+,50% (39-61)
same,DCR,EGFR mutation+ or IHC+,47%
same,MS,EGFR mutation+ or IHC+,12 (8-15) mo
same,RSP,EGFR mutation+ or IHC+,12%
same,TTP,EGFR mutation+ or IHC+,3 (2-5) mo
same,1-yr survival,EGFR mutation+/IHC+,63% (45-81)
same,MS,EGFR mutation+/IHC+,21 (10-21) mo
same,RSP,EGFR mutation+/IHC+,50%
same,TTP,EGFR mutation+/IHC+,10 (2-16) mo
same,MS,EGFR mutation-/IHC-,7 (5-12) mo
same,RSP,EGFR mutation-/IHC-,2%
same,TTP,EGFR mutation-/IHC-,2 (2-3) mo
same,1-yr surv,[2],100%
same,DCR,[2],78%
same,OR (response rate),[2],78%
same,TTP,[2],20 (11-20) months
same,1-yr surv,[3],64% (42-86)
same,OR (response rate),[3],22%
same,OS (median survival),[3],15 (6-16) months
same,TTP,[3],5 (3-12) months
same,1-yr surv,"FISH +, IHC +, P-AKT +, N 34",84% (70-97)
same,DCR,"FISH +, IHC +, P-AKT +, N 34",80%
same,OR (response rate),"FISH +, IHC +, P-AKT +, N 34",43%
same,TTP,"FISH +, IHC +, P-AKT +, N 34",12 (6-19) months
same,1-yr surv,"FISH +, IHC +, P-AKT −, N 4",75% (33-100)
same,OR (response rate),"FISH +, IHC +, P-AKT −, N 4",0%
same,OS (median survival),"FISH +, IHC +, P-AKT −, N 4",18 (5-18) months
same,TTP,"FISH +, IHC +, P-AKT −, N 4",9 (2-9) months
same,1-yr surv,"FISH +, IHC −, EGFR Mut +, n 5",60% (17-100)
same,DCR,"FISH +, IHC −, EGFR Mut +, n 5",50%
same,OR (response rate),"FISH +, IHC −, EGFR Mut +, n 5",50%
same,TTP,"FISH +, IHC −, EGFR Mut +, n 5",3 (2-9) months
same,1-yr surv,"FISH +, IHC −, EGFR Mut −, n 8",38% (7-66)
same,DCR,"FISH +, IHC −, EGFR Mut −, n 8",39%
same,OR (response rate),"FISH +, IHC −, EGFR Mut −, n 8",0%
same,OS (median survival),"FISH +, IHC −, EGFR Mut −, n 8",9 (1-9) months
same,TTP,"FISH +, IHC −, EGFR Mut −, n 8",2 (1-6) months
same,1-yr surv,"FISH +, IHC −, P-AKT +, N 15",53% (28-79)
same,DCR,"FISH +, IHC −, P-AKT +, N 15",46%
same,OR (response rate),"FISH +, IHC −, P-AKT +, N 15",15%
same,OS (median survival),"FISH +, IHC −, P-AKT +, N 15",14 (3-19) months
same,TTP,"FISH +, IHC −, P-AKT +, N 15",3 (2-6) months
same,1-yr surv,"FISH +, IHC −, P-AKT −, N 2",0% (0-69)
same,DCR,"FISH +, IHC −, P-AKT −, N 2",0%
same,OR (response rate),"FISH +, IHC −, P-AKT −, N 2",0%
same,OS (median survival),"FISH +, IHC −, P-AKT −, N 2",9 (NA) months
same,TTP,"FISH +, IHC −, P-AKT −, N 2",2 (NA) months
same,1-yr surv,[4],42% (1470)
same,DCR,[4],44%
same,OR (response rate),[4],22%
same,OS (median survival),[4],11 (3-11) months
same,TTP,[4],4 (2-7) months
same,1-yr surv,[5],49% (33-64)
same,DCR,[5],41%
same,OR (response rate),[5],3%
same,OS (median survival),[5],11 (8-18) months
same,TTP,[5],3 (2-5) months
same,1-yr surv,"FISH −, IHC +, P-AKT +, N 35",43% (26-59)
same,DCR,"FISH −, IHC +, P-AKT +, N 35",47%
same,OR (response rate),"FISH −, IHC +, P-AKT +, N 35",13%
same,OS (median survival),"FISH −, IHC +, P-AKT +, N 35",11 (6-15) months
same,TTP,"FISH −, IHC +, P-AKT +, N 35",4 (2-6) months
same,1-yr surv,"FISH −, IHC +, P-AKT −, N 23",47% (27-68)
same,DCR,"FISH −, IHC +, P-AKT −, N 23",50%
same,OR (response rate),"FISH −, IHC +, P-AKT −, N 23",6%
same,OS (median survival),"FISH −, IHC +, P-AKT −, N 23",9 (7-9) months
same,TTP,"FISH −, IHC +, P-AKT −, N 23",4 (2-7) months
same,1-yr surv,"FISH −, IHC −, EGFR Mut +, n 6",0% (0-30)
same,DCR,"FISH −, IHC −, EGFR Mut +, n 6",0%
same,OR (response rate),"FISH −, IHC −, EGFR Mut +, n 6",0%
same,OS (median survival),"FISH −, IHC −, EGFR Mut +, n 6",3 (1-3) months
same,TTP,"FISH −, IHC −, EGFR Mut +, n 6",2 (1-2) months
same,1-yr surv,[6],37% (21-52)
same,DCR,[6],21%
same,OR (response rate),[6],3%
same,OS (median survival),[6],6 (4-12) months
same,TTP,[6],2 (2-3) months
same,1-yr surv,"FISH −, IHC −, P-AKT +, N 32",29% (13-44)
same,DCR,"FISH −, IHC −, P-AKT +, N 32",18%
same,OR (response rate),"FISH −, IHC −, P-AKT +, N 32",4%
same,OS (median survival),"FISH −, IHC −, P-AKT +, N 32",6 (4-10) months
same,TTP,"FISH −, IHC −, P-AKT +, N 32",2 (2-3) months
same,1-yr surv,"FISH −, IHC −, P-AKT −, N 17",29% (8-51)
same,DCR,"FISH −, IHC −, P-AKT −, N 17",14%
same,OR (response rate),"FISH −, IHC −, P-AKT −, N 17",0%
same,OS (median survival),"FISH −, IHC −, P-AKT −, N 17",6 (4-12) months
same,TTP,"FISH −, IHC −, P-AKT −, N 17",2 (2-5) months
same,1-yr (1-year survival),[7],45% (30-59)
same,MS (mo) (median survival),[7],10 (5-14) mo
same,RSP (response rate),[7],15%
same,TTP (mo) (time to progression),[7],3 (2-5) mo
same,1-yr (1-year survival),[8],67% (71-100)
same,RSP (response rate),[8],69%
same,TTP (mo) (time to progression),[8],16 (3-20) mo
same,1-yr (1-year survival),[9],42% (31-53)
same,DCR (disease control rate),[9],29%
same,MS (mo) (median survival),[9],10 (6-13) mo
same,RSP (response rate),[9],3%
same,TTP (mo) (time to progression),[9],3 (2-3) mo
same,1-yr OS,KRAS Mutation+,49% (33%-66%)
same,DC (disease control),KRAS Mutation+,39%
same,MS (95% CI),KRAS Mutation+,11 (6-23)
same,OR (overall response),KRAS Mutation+,7%
same,"TTP, median (95% CI)",KRAS Mutation+,3 (2-4)
same,1-yr OS,KRAS Mutation-,50% (40%-60%)
same,DC (disease control),KRAS Mutation-,40%
same,MS (95% CI),KRAS Mutation-,12 (8-15)
same,"TTP, median (95% CI)",KRAS Mutation-,3 (2-4)
same,DC (disease control),P-AKT+,49%
same,MS (95% CI),P-AKT+,13 (10-16)
same,"TTP, median (95% CI)",P-AKT+,4 (3-5)
same,1-yr survival,P-AKT+ or EGFR IHC+,43% (32-54)
same,DCR,P-AKT+ or EGFR IHC+,34%
same,MS,P-AKT+ or EGFR IHC+,8 (6-14) mo
same,RSP,P-AKT+ or EGFR IHC+,6%
same,TTP,P-AKT+ or EGFR IHC+,3 (2-3) mo
same,1-yr survival,P-AKT+/EGFR IHC+,63% (51-74)
same,MS,P-AKT+/EGFR IHC+,16 (12-21) mo
same,RSP,P-AKT+/EGFR IHC+,30%
same,TTP,P-AKT+/EGFR IHC+,6 (4-10) mo
same,DC (disease control),P-AKT-,33%
same,MS (95% CI),P-AKT-,8 (6-14)
same,OR (overall response),P-AKT-,2%
same,"TTP, median (95% CI)",P-AKT-,3 (2-5)
same,DCR,P-AKT-/EGFR IHC-,21%
same,MS,P-AKT-/EGFR IHC-,6 (5-9) mo
same,TTP,P-AKT-/EGFR IHC-,2 (2-4) mo
same,Disease Control Rate,"both cohorts, total",43%
same,Median Survival,"both cohorts, total",11 (8-14)
same,Median Time to Progression,"both cohorts, total",3 (3-4)
same,One-YR Survival,"both cohorts, total",48% (41-55)
same,Overall Response,"both cohorts, total",15%
same,"HR, survival, multivariable",performance status 2,3.64
same,Disease Control Rate,[10],80%
same,response rate,[10],43%
same,time to progression,[10],12 months
same,Median Survival,"triple positive: EGFR FISH, EGFR IHC, P-AKT, not achieved yet",exceeding 20 months
same,1-year survival,[11],100%
same,Disease Control Rate,[11],78%
same,response rate,[11],78%
same,time to progression,[11],20 months
same,Median Survival,"triple positive: EGFR FISH, IHC, mutation, not yet achieved",exceeding 20 months
